Assay results: patent publication US20160158200A1, “Combinations of Hepatitis C Virus Inhibitors” (priority 2013, published 2016)

What follows are molecules tested on HCV genotype-1a variant with glutamine 30 changed to glutamate in the NS5A protein. Settings: test compound titrated with BMS-790052 fixed at 200 nM; genotype 1a Q30E replicon.
Assay type: cell-based
Summary of the method: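 Synergy was assessed by combining several fixed amounts of an NS5A-targeting compound with a titration of the second compound of interest.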
In the case of `CC(C)(C)OC(=O)N1CC(C)(C(=O)NC(c2nc(-c3ccc(-c4ccc(-c5c[nH]c(C(NC(=O)C6(C)CN(C(=O)OC(C)(C)C)C6)C(C)(C)C)n5)cc4)cc3)c[nH]2)C(C)(C)C)C1` [Compound L-63], the “Fold-Synergistic 1a (Q30E)” value is reported as >100 fold.
`COCC1(C(=O)N[C@H](c2nc(-c3ccc(-c4ccc(-c5c[nH]c([C@@H](NC(=O)C6(COC)CCC(F)(F)CC6)C(C)(C)C)n5)cc4)cc3)c[nH]2)C(C)(C)C)CCC(F)(F)CC1` [Compound P-41] was tested, and the “Fold-Synergistic 1a (Q30E)” value was >100 fold.
In the case of `CC(C)[C@H](NC(=O)CCC(C)(C)C)c1ncc(-c2ccc(-c3ccc(-c4cnc([C@@H](NC(=O)CCC(C)(C)C)C(C)C)[nH]4)cc3)cc2)[nH]1` [Compound P-81], the “Fold-Synergistic 1a (Q30E)” value is reported as >100 fold.
`CC(C)(C)[C@H](NC(=O)[C@@H]1C[C@@H](F)CN1)c1nc(-c2ccc(-c3ccc(-c4c[nH]c([C@@H](NC(=O)[C@@H]5C[C@@H](F)CN5)C(C)(C)C)n4)cc3)cc2)c[nH]1` [Compound W-101, (2S,2'S,4R,4′R)—N,N′-((1S,1′S)-(4,4′-([1,1′-biphenyl]-4,4′-diyl)bis(1H-imidazole-4,2-diyl))bis(2,2-dimethylpropane-1,1-diyl))bis(4-fluoropyrrolidine-2-carboxamide)] was tested, and the “Fold-Synergistic 1a (Q30E)” value was >10 fold.
In the case of `COC(=O)N[C@H]1CCN([C@H](c2ncc(-c3ccc(-c4ccc(-c5cnc([C@H](C(C)C)N6CC[C@H](NC(=O)OC)C6=O)[nH]5)cc4)cc3)[nH]2)C(C)C)C1=O.O=C(O)C(F)(F)F.O=C(O)C(F)(F)F` [Compound P-53], the “Fold-Synergistic 1a (Q30E)” value is reported as <10 fold.
With `CC(C)(C)C(=O)N[C@H](c1nc2ccc(-c3ccc(-c4ccc5nc([C@@H](NC(=O)C(C)(C)C)C(C)(C)C)[nH]c5c4)cc3)cc2[nH]1)C(C)(C)C.O=C(O)C(F)(F)F` [Compound B33] the “Fold-Synergistic 1a (Q30E)” value was >100 fold.
With `CC(C)[C@H](NC(=O)C(=O)C1(C)CCC(F)(F)CC1)c1ncc(-c2ccc(-c3ccc(-c4cnc([C@@H](NC(=O)C(=O)C5(C)CCC(F)(F)CC5)C(C)C)[nH]4)cc3)cc2)[nH]1` [Compound P-112] the “Fold-Synergistic 1a (Q30E)” value was >100 fold.
In the case of `C#CCOC(=O)N[C@@H](C(=O)N[C@H](c1ncc(-c2ccc(-c3ccc(-c4cnc([C@@H](NC(=O)[C@H](NC(=O)OCC#C)C(C)C)C(C)C)[nH]4)cc3)cc2)[nH]1)C(C)C)C(C)C` [Compound S-252], the “Fold-Synergistic 1a (Q30E)” value is reported as >100 fold.
In the case of `CC(C)[C@H](NC(=O)C12CCC(C1)C(C)(C)C2O)c1nc(-c2ccc(-c3ccc(-c4c[nH]c([C@@H](NC(=O)C56CCC(C5)C(C)(C)C6O)C(C)C)n4)cc3)cc2)c[nH]1` (single isomer, unassigned) [Compound Y-115], the “Fold-Synergistic 1a (Q30E)” value is reported as >100 fold.
`C[C@H]1CCN(C(=O)C2CCC(F)(F)CC2)C1c1nc(-c2ccc(-c3ccc(-c4c[nH]c([C@@H]5[C@@H](C)CCN5C(=O)C5CCC(F)(F)CC5)n4)cc3)cc2)c[nH]1` (some centres unmarked) [Compound W-188] was tested, and the “Fold-Synergistic 1a (Q30E)” value was >10 fold.
In the case of `Cc1cc(-c2ccc(-c3c[nH]c([C@@H](NC(=O)C(C)(C)C)C(C)C)n3)cc2)ccc1-c1c[nH]c([C@@H](NC(=O)C(C)(C)C)C(C)C)n1` [Compound N-77], the “Fold-Synergistic 1a (Q30E)” value is reported as >100 fold.
In the case of `CC(C)(C)C(NC(=O)C1C(c2ccccc2)C1c1ccccc1)c1nc(-c2ccc(-c3ccc(-c4c[nH]c(C(NC(=O)C5C(c6ccccc6)C5c5ccccc5)C(C)(C)C)n4)cc3)cc2)c[nH]1` (mixture of isomers) [Compound S-271], the “Fold-Synergistic 1a (Q30E)” value is reported as >100 fold.
In the case of `CC(C)CC(=O)NC1(c2ncc(-c3ccc(-c4ccc(-c5cnc(C6(NC(=O)CC(C)C)CCCCC6)[nH]5)cc4)cc3)[nH]2)CCCCC1.O=C(O)C(F)(F)F.O=C(O)C(F)(F)F` [Compound N-24], the “Fold-Synergistic 1a (Q30E)” value is reported as <10 fold.
In the case of `CC(C)(C)[C@H](NC(=O)C(C)(C)S(C)(=O)=O)c1nc(-c2ccc(-c3ccc(-c4cnc([C@@H](NC(=O)C(C)(C)S(C)(=O)=O)C(C)(C)C)[nH]4)cc3)cc2)c[nH]1` [Compound B-180], the “Fold-Synergistic 1a (Q30E)” value is reported as >100 fold.
`CC(C)CC(=O)NC1(c2ncc(-c3ccc(-c4ccc(-c5cnc(C6(NC(=O)CC(C)C)Cc7ccccc7C6)[nH]5)cc4)cc3)[nH]2)Cc2ccccc2C1.O=C(O)C(F)(F)F.O=C(O)C(F)(F)F` [Compound N-19] was tested, and the “Fold-Synergistic 1a (Q30E)” value was <10 fold.
With `O=C(NC(c1nc(-c2ccc(-c3ccc(-c4c[nH]c(C(NC(=O)C(=O)N5CCC(F)(F)CC5)C5CC5)n4)cc3)cc2)c[nH]1)C1CC1)C(=O)N1CCC(F)(F)CC1` [Compound L-37] the “Fold-Synergistic 1a (Q30E)” value was >100 fold.
For `CC(C)(C)C(NC(=O)C(C)(O)C(F)(F)F)c1nc(-c2ccc(-c3ccc(-c4c[nH]c(C(NC(=O)C(C)(O)C(F)(F)F)C(C)(C)C)n4)cc3)cc2)c[nH]1.O=C(O)C(F)(F)F.O=C(O)C(F)(F)F` (single isomer, unassigned) [Compound L-66b], the “Fold-Synergistic 1a (Q30E)” value was >100 fold.
With `CC(C)(C)OC(=O)C(=O)N[C@H](c1nc(-c2ccc(-c3ccc(-c4c[nH]c([C@@H](NC(=O)C(=O)OC(C)(C)C)C(C)(C)C)n4)cc3)cc2)c[nH]1)C(C)(C)C` [Compound W-43A] the “Fold-Synergistic 1a (Q30E)” value was >100 fold.
`COCC(NC(=O)C1CCC(F)(F)CC1)c1nc(-c2ccc(-c3ccc(-c4c[nH]c(C(COC)NC(=O)C5CCC(F)(F)CC5)n4)cc3)cc2)c[nH]1` [Compound L-102] was tested, and the “Fold-Synergistic 1a (Q30E)” value was >100 fold.
For `CC(C)(C)[C@H](NC(=O)C1CCCCC1CO)c1nc(-c2ccc(-c3ccc(-c4c[nH]c([C@@H](NC(=O)C5CCCCC5CO)C(C)(C)C)n4)cc3)cc2)c[nH]1` (single isomer, unassigned) [Compound L-141c], the “Fold-Synergistic 1a (Q30E)” value was >100 fold.
With `CC(C)(C)[C@H](NC(=O)C1(NC(=O)C2CC2)CCCCC1)c1nc(-c2ccc(-c3ccc(-c4c[nH]c([C@@H](NC(=O)C5(NC(=O)C6CC6)CCCCC5)C(C)(C)C)n4)cc3)cc2)c[nH]1` [Compound W-264] the “Fold-Synergistic 1a (Q30E)” value was >100 fold.
With `CC(C)(C)[C@H](NC(=O)C1CCC2(CC1)CC2)c1nc(-c2ccc(-c3ccc(-c4c[nH]c([C@@H](NC(=O)C5CCC6(CC5)CC6)C(C)(C)C)n4)cc3)cc2)c[nH]1` (some centres unmarked) [Compound N-123] the “Fold-Synergistic 1a (Q30E)” value was >100 fold.
With `C[C@@H]1CN(C(=O)C(=O)N[C@H](c2nc(-c3ccc(-c4ccc(-c5c[nH]c([C@@H](NC(=O)C(=O)N6C[C@@H](C)O[C@@H](C)C6)C6(C)CC6)n5)cc4)cc3)c[nH]2)C2(C)CC2)C[C@H](C)O1` [Compound W-61] the “Fold-Synergistic 1a (Q30E)” value was >100 fold.
For `CC(C)(C)[C@H](NC(=O)C(=O)N1CCC(F)CC1)c1nc(-c2ccc(-c3ccc(-c4c[nH]c([C@@H](NC(=O)C(=O)N5CCC(F)CC5)C(C)(C)C)n4)cc3)cc2)c[nH]1` [Compound W-26], the “Fold-Synergistic 1a (Q30E)” value was >100 fold.
For `CC(C)[C@H](NC(=O)c1ccc(C(F)(F)F)s1)c1ncc(-c2ccc(-c3ccc(-c4cnc([C@@H](NC(=O)c5ccc(C(F)(F)F)s5)C(C)C)[nH]4)cc3)cc2)[nH]1` [Compound Y-21], the “Fold-Synergistic 1a (Q30E)” value was >100 fold.
In the case of `COC(CO)(CC(C)C)C(=O)N[C@H](c1nc(-c2ccc(-c3ccc(-c4c[nH]c([C@@H](NC(=O)C(CO)(CC(C)C)OC)C(C)(C)C)n4)cc3)cc2)c[nH]1)C(C)(C)C` (single isomer, unassigned) [Compound N-160C], the “Fold-Synergistic 1a (Q30E)” value is reported as >100 fold.
In the case of `CC(C)(Br)C(=O)N[C@H](c1nc(-c2ccc(-c3ccc(-c4c[nH]c([C@@H](NC(=O)C(C)(C)Br)C(C)(C)C)n4)cc3)cc2)c[nH]1)C(C)(C)C` [Compound W-149], the “Fold-Synergistic 1a (Q30E)” value is reported as >100 fold.
With `Cc1ccc(S(=O)(=O)NC(c2ncc(-c3ccc(-c4ccc(-c5cnc([C@@H](NS(=O)(=O)c6ccc(C)cc6)C(C)C)[nH]5)cc4)cc3)[nH]2)C(C)C)cc1` (some centres unmarked) [Compound Y-58] the “Fold-Synergistic 1a (Q30E)” value was >100 fold.
`C=C1C[C@@H](C(=O)N[C@H](c2nc(-c3ccc(-c4ccc(-c5c[nH]c([C@@H](NC(=O)[C@@H]6CC(=C)CN6C(=O)OC(C)(C)C)C(C)(C)C)n5)cc4)cc3)c[nH]2)C(C)(C)C)N(C(=O)OC(C)(C)C)C1` [Compound W-91] was tested, and the “Fold-Synergistic 1a (Q30E)” value was >100 fold.
`CC(C)(C)[C@H](NC(=O)C(C)(C)C1(O)CCC(F)(F)CC1)c1nc2ccc(C#Cc3ccc4nc([C@@H](NC(=O)C(C)(C)C5(O)CCC(F)(F)CC5)C(C)(C)C)[nH]c4c3)cc2[nH]1.O=C(O)C(F)(F)F` [Compound B41A] was tested, and the “Fold-Synergistic 1a (Q30E)” value was >100 fold.
In the case of `CC1(C(=O)N2CCC[C@H]2c2ncc(-c3ccc(-c4ccc(-c5cnc([C@@H]6CCCN6C(=O)C6(C)CC6)[nH]5)cc4)cc3)[nH]2)CC1` [Compound S-160], the “Fold-Synergistic 1a (Q30E)” value is reported as <10 fold.
For `CN(C(=O)OCCF)C(C)(C)C(=O)N[C@H](c1nc(-c2ccc(-c3ccc(-c4c[nH]c([C@@H](NC(=O)C(C)(C)N(C)C(=O)OCCF)C(C)(C)C)n4)cc3)cc2)c[nH]1)C(C)(C)C` [Compound L-20], the “Fold-Synergistic 1a (Q30E)” value was >100 fold.
For `CC(C)(C)[C@H](NC(=O)[C@H]1C[C@@H]2[C@H](C1)C2(F)F)c1nc(-c2ccc(-c3ccc(-c4c[nH]c([C@@H](NC(=O)[C@H]5C[C@@H]6[C@H](C5)C6(F)F)C(C)(C)C)n4)cc3)cc2)c[nH]1` [Compound Y-10], the “Fold-Synergistic 1a (Q30E)” value was >100 fold.
In the case of `CC(C)(C)[C@H](NC(=O)C1(C2(O)CCC(F)(F)CC2)CC1)c1nc2ccc(C#Cc3ccc4nc([C@@H](NC(=O)C5(C6(O)CCC(F)(F)CC6)CC5)C(C)(C)C)[nH]c4c3)cc2[nH]1.O=C(O)C(F)(F)F` [Compound B41B], the “Fold-Synergistic 1a (Q30E)” value is reported as >100 fold.
In the case of `CC(C)[C@H](NC(=O)[C@@]1(C)CCC(F)(F)CO1)c1nc(-c2ccc3c(c2)CCc2cc(-c4c[nH]c([C@@H](NC(=O)[C@@]5(C)CCC(F)(F)CO5)C(C)C)n4)ccc2-3)c[nH]1` [Compound N-131], the “Fold-Synergistic 1a (Q30E)” value is reported as >100 fold.
With `CC(C)[C@H](NC(=O)C1(CF)CC1)c1ncc(-c2ccc(-c3ccc(-c4cnc([C@@H](NC(=O)C5(CF)CC5)C(C)C)[nH]4)cc3)cc2)[nH]1` [Compound P-73] the “Fold-Synergistic 1a (Q30E)” value was >100 fold.
With `CC1CN(C(=O)C(=O)N[C@H](c2nc(-c3ccc(-c4ccc(-c5c[nH]c([C@@H](NC(=O)C(=O)N6CC(C)OC(C)C6)C(C)(C)C)n5)cc4)cc3)c[nH]2)C(C)(C)C)CC(C)O1` (single isomer, unassigned) [Compound W-40C] the “Fold-Synergistic 1a (Q30E)” value was >100 fold.
`CC(C)[C@H](NC(=O)C1(C(C)O)CC1)c1ncc(-c2ccc(-c3ccc(-c4cnc([C@@H](NC(=O)C5(C(C)O)CC5)C(C)C)n4C)cc3)cc2)n1C` (single isomer, unassigned) [Compound B-204] was tested, and the “Fold-Synergistic 1a (Q30E)” value was >10 fold.
